Experimental data: patent publication US8563545B2, “Compound useful for the treatment of degenerative and inflammatory diseases” (Galapagos NV, priority 2009, dated 2013)
pIC50: −log10 of the molar value. Where “and” joins values, the source holds several entries; their conditions need not be identical. Identical values can stand only once. Like-named read-outs stand apart in the source and are kept apart here.

Legend:
JAK2 = JAK2 (Homo sapiens (Human), UniProt O60674); test: JAK2 inhibition assay; type: biochemical
Method: After 90 min at 30° C., reactions were stopped by adding of 25 μL/well of 150 mM phosphoric acid. […] Plates were washed 6 times with 300 μL per well of a 75 mM phosphoric acid solution and the bottom of the plates was sealed. 40 μL/well of Microscint-20 was added, the top of the plates was sealed and readout was performed using the Topcount (Perkin Elmer). Kinase activity was calculated by subtracting counts per minute (cpm) obtained in the presence of a positive control inhibitor (10 μM staurosporine) from cpm obtained in the presence of vehicle. The ability of a test compound to inhibit this activity was determined as:
Percentage inhibition=((cpm determined for sample with test compound present−cpm determined for sample with positive control inhibitor)divided by(cpm determined in the presence of vehicle−cpm determined for sample with positive control inhibitor))*100.
Dose dilution series were prepared for the compounds enabling the testing of dose-response effects in the JAK2 assay and the calculation of the IC50 for each compound.

[1] = Microsomal stability, rat; type: in vitro ADME; details: rat liver microsomes, 3 μM compound
Method: A 10 mM stock solution of compound in DMSO was diluted 1000 fold in a 182 mM phosphate buffer pH7.4 in a 96 deep well plate (Greiner, Cat no. 780285) and pre-incubated at 37° C. 40 μL of deionised water was added to a well of a polypropylene Matrix 2D barcode labelled storage tube (Thermo Scientific) and pre-incubated at 37° C.
A Glucose-6-phophate-dehydrogenase (G6PDH) working stock solution was prepared in 182 mM phosphate buffer pH7.4 and placed on ice before use. A co-factor containing MgCl2, glucose-6-phosphate and NADP+ was prepared in deionised water and placed on ice before use.
A final working solution containing liver microsomes (Xenotech) of a species of interest (human, mouse, rat, dog), previously described G6PDH and co-factors was prepared and this mix was incubated for no longer than 20 minutes at room temperature.
30 μL of the pre-heated compound dilution was added to 40 μL of pre-heated water in the Matrix tubes and 30 μL, of the microsomal mix was added. Final reaction concentrations were 3 μM compound, 1 mg microsomes, 0.4 U/mL GDPDH, 3.3 mM MgCl2, 3.3 mM glucose-6-phosphate and 1.3 mM NADP+.
To measure percentage remaining of compound at time zero MeOH or ACN was added (1:1) to the well before adding the microsomal mix. The plates were sealed with Matrix Sepra Seals™ (Matrix, Cat. No. 4464) and shaken for a few seconds ensure complete mixing of all components.
The samples which were not stopped are incubated at 37° C., 300 rpm and after 1 hr of incubation the reaction was stopped with MeOH or ACN (1:1).
After stopping the reaction the samples were mixed and placed on ice for 30 min to precipitate the proteins. The plates were then centrifuged 30 min at 1200 rcf at 4° C. and the supernatant was transferred to a 96 v-bottom PP plate (Greiner, 651201) for analysis on LCMS.
These plates were sealed with sealing mats (MA96RD-04S) of www.kinesis.co.uk and samples were measured at room temperature on LCMS (ZQ 1525 from Waters) under optimized conditions using Quanoptimize to determine the appropriate mass of the parent molecule.
The samples were analyzed on LCMS with a flow rate of 1 mL/min. Solvent A was 15 mM ammonia and solvent B was methanol or acetonitrile, depending on the stop solution used. The samples were run under positive ion spray on an XBridge C18 […] (2.1×30 mm) column, from Waters.
Peak area from the parent compound at time 0 was considered to be 100% remaining. The percentage remaining after 1 hr incubation was calculated from time 0 and was calculated as the percentage remaining. The solubility of the compound in the final test concentration in buffer is inspected by microscope and results are reported.
The data on microsomal stability are expressed as a percentage of the total amount of compound remaining after 60 min.

Aqueous solubility = type: physicochemical; details: kinetic from dmso stock
Method: Starting from a 10 mM stock in DMSO, a serial dilution of the compound was prepared in DMSO. The dilution series was transferred to a 96 NUNC Maxisorb plate F-bottom (Cat no. 442404) and 0.2M phosphate buffer pH7.4 or 0.1M citrate buffer pH 3.0 at room temperature was added.
The final concentration ranged from 200 μM to 2.5 μM in 5 equal dilution steps. […] 200 μM Pyrene was added to the corner points of each 96 well plate and served as a reference point for calibration of Z-axis on the microscope.
The assay plates were sealed and incubated for 1 hr at 37° C. while shaking at 230 rpm. The plates were then scanned under a white light microscope, yielding individual pictures of the precipitate per concentration. The precipitate was analyzed and converted into a number which was plotted onto a graph. The first concentration at which the compound appears completely dissolved is the concentration is reported below, however the true concentration lies somewhere between this concentration and one dilution step higher.
Solubility values are reported in μg/mL

[2] = Plasma protein binding (equilibrium dialysis), rat; type: in vitro ADME; details: 10 μM, 4 hrs at 37° C.
Method: A 10 mM stock solution of the compound in DMSO was diluted with a factor 5 in DMSO. This solution was further diluted in freshly thawed human, rat, mouse or dog plasma (BioReclamation INC) with a final concentration of 10 μM and final DMSO concentration of 0.5% (5.5 μL in 1094.5 μL plasma in a PP-Masterblock 96 well (Greiner, Cat no. 780285))
A Pierce Red Device plate with inserts (ThermoScientific, Cat no. 89809) was prepared and filled with 750 μL PBS in the buffer chamber and 500 μL of the spiked plasma in the plasma chamber. The plate was incubated for 4 hrs at 37° C. while shaking at 230 rpm. After incubation, 120 μL of both chambers was transferred to 360 μL acetonitrile in a 96-well round bottom, PP deep-well plates (Nunc, Cat no. 278743) and sealed with an aluminum foil lid. The samples were mixed and placed on ice for 30 min. This plate was then centrifuged 30 min at 1200 rcf at 4° C. and the supernatant was transferred to a 96 v-bottom PP plate (Greiner, 651201) for analysis on LCMS.
The plate is sealed with sealing mats (MA96RD-04S) of www.kinesis.co.uk and samples are measured at room temperature on LCMS (ZQ 1525 from Waters) under optimized conditions using Quanoptimize to determine the appropriate mass of the molecule.
The samples were analyzed on LCMS with a flow rate of […]. Solvent A was 15 mM ammonia and solvent B was acetonitrile. The sample was run under positive ion spray on an XBridge C18 3.5 μM (2.1×30 mm) column, from Waters. The solvent gradient has a total run time of 2 minutes and ranges from 5% B to 95% B.
Peak area from the compound in the buffer chamber and the plasma chamber are considered to be 100% compound.

[3] = 0.2 M phosphate buffer pH 7.4, 37 °C, pH 7.4, aqueous buffer, 0.2M phosphate buffer pH7.4, read-out: Aqueous solubility pH 7.4
[4] = 37 °C, aqueous buffer, 0.1M citrate buffer pH 3.0, read-out: Aqueous solubility pH 3.0

Sequence of JAK2 (O60674 808-1132): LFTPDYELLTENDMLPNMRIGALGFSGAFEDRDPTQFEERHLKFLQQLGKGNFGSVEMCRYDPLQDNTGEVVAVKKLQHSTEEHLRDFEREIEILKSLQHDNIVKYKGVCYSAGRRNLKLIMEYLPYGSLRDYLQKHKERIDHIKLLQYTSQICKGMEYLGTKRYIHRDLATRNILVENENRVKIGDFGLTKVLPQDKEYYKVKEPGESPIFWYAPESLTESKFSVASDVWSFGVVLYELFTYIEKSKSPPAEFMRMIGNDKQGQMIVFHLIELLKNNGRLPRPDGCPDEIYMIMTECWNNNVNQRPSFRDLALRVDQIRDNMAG

Structure (SMILES) | pIC50 (JAK2) | percentage of compound remaining after 60 min, Rat [1] [%] | solubility at 1 h (Aqueous solubility; [3]) [µg/mL] | solubility at 1 h (Aqueous solubility; [4]) [µg/mL] | percentage bound to plasma, Rat [2] [%]
O=C(Nc1nc2cccc(-c3ccc(CN4CCOCC4)cc3)n2n1)C1CC1 [Compound 2, N-(5-(4-(morpholinomethyl)phenyl)-[1,2,4]triazolo[1,5-a]pyridin-2-yl)cyclopropanecarboxamide] | 7.41 and 6.82 and 6.73 | 38 | > 38 | > 38 | 64.5
O=C(Nc1nc2cccc(-c3ccc(CN4CCS(=O)(=O)CC4)cc3)n2n1)C1CC1 [Compound 1, Cyclopropanecarboxylic acid {5-[4-(1,1-dioxo-1-thiomorpholin-4-ylmethyl)-phenyl]-[1,2,4]triazolo [1,5-a]pyridin-2-yl}-amide] |  | 65.6 | > 85 | > 85 | 65.7
O=C(Nc1nc2cccc(-c3ccc(C(=O)N4CCS(=O)(=O)CC4)cc3)n2n1)C1CC1 [Compound 10, Cyclopropanecarboxylic acid {5-[4-(1,1-dioxo-1-thiomorpholine-4-carbonyl)-phenyl]-[1,2,4]triazolo [1,5-a]pyridin-2-yl}-amide] | 7.18 | 89 | > 87.9 | > 87.9 | 51
O=C(Nc1nc2cccc(-c3ccc(CN4CCC(F)(F)CC4)cc3)n2n1)C1CC1 [Compound 11, Cyclopropanecarboxylic acid {5-[4-(4,4-difluoro-piperidin-1-ylmethyl)-phenyl]-[1,2,4]triazolo [1,5-a]pyridin-2-yl}-amide] | 7.81 | 26 |  |  | 76.5
